Results: patent US20220298213A1, “IN VIVO ENGINEERED CEREBLON PROTEIN” (Vividion Therapeutics, Inc., priority 2018, published 2022)
Read-outs that look alike come from different tables or passages of the source.

How the values were obtained:
Assay in all cases: Probe labeling at native and denatured states after pretreatment (Table 2)
Format in all cases: binding
TEC_449 = target: T1, TEC_449 (Homo sapiens, UniProt P42680); conditions: screening concentration; for inhibition of probe labeling, TEC_449, Den.: denatured state; for inhibition of probe labeling, TEC_449, Nat.: native state
T1 construct: In each the cell lysate was pretreated with compound; endogenous in cells
T1 sequence (P42680 1-631): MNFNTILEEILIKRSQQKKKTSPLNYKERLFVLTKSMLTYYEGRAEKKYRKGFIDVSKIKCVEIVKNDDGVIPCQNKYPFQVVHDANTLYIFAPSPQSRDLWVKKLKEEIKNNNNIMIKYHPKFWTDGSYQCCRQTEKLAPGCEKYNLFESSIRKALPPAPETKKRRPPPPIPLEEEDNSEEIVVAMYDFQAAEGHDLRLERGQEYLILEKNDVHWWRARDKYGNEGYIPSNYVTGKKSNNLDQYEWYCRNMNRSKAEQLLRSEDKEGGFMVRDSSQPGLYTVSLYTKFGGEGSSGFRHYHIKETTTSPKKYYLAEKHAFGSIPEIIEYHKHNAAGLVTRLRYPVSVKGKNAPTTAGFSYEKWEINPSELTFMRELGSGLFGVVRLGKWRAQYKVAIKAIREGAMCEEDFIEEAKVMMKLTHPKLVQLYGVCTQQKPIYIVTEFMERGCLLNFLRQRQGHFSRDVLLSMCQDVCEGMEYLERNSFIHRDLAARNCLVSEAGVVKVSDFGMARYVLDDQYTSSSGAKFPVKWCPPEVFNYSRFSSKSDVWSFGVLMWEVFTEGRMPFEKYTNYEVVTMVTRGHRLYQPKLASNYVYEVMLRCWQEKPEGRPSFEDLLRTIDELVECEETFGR

CRBN_322 = target: T2, CRBN_322 (Homo sapiens, UniProt Q96SW2)
T2 construct: endogenous in cells; host or cells: cell lysate
T2 sequence (Q96SW2 whole entry): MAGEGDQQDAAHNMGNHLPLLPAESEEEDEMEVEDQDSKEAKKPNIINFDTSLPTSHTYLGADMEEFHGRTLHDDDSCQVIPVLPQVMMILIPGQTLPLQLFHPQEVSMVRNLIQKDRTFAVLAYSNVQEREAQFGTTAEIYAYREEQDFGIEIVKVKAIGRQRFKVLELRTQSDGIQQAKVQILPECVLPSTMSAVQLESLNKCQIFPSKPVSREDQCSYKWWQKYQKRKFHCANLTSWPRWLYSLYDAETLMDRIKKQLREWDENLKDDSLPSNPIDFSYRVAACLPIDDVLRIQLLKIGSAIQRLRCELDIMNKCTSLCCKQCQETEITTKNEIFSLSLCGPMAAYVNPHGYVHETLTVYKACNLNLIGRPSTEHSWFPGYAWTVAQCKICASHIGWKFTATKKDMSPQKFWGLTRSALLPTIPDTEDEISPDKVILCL
Protocol: (§1) To determine whether the co-inhibition of C287 and C318 was due to a direct or indirect mechanism, CRBN was pretreated with various Michael acceptor compounds and then tested for probe labeling in its native and denatured states.
(§2) In each the cell lysate was pretreated with compound, for native state data the probe was immediately added and for denatured data the probe was added after an additional step of denaturation (schematic shown in FIG. 4).

CRBN_343 = target: T3, CRBN_343 (Homo sapiens, UniProt Q96SW2)
T3 construct: endogenous in cells; host or cells: cell lysate
T3 sequence (Q96SW2 whole entry): as above
Protocol: as §1, §2

CRBN_219 = target: T4, CRBN_219 (Homo sapiens, UniProt Q96SW2)
T4 construct: endogenous in cells; host or cells: cell lysate
T4 sequence (Q96SW2 whole entry): as above
Protocol: as §1, §2

CRBN_310 = target: T5, CRBN_310 (Homo sapiens, UniProt Q96SW2)
T5 construct: endogenous in cells; host or cells: cell lysate
T5 sequence (Q96SW2 whole entry): as above
Protocol: as §1, §2

CRBN_205 = target: T6, CRBN_205 (Homo sapiens, UniProt Q96SW2)
T6 construct: endogenous in cells; host or cells: cell lysate
T6 sequence (Q96SW2 whole entry): as above
Protocol: as §1, §2

CRBN_188 = target: T7, CRBN_188 (Homo sapiens, UniProt Q96SW2)
T7 construct: endogenous in cells; host or cells: cell lysate
T7 sequence (Q96SW2 whole entry): as above
Protocol: as §1, §2

CRBN_326 = target: T8, CRBN_326 (Homo sapiens, UniProt Q96SW2)
T8 construct: endogenous in cells; host or cells: cell lysate
T8 sequence (Q96SW2 whole entry): as above
Protocol: as §1, §2

CRBN_234 = target: T9, CRBN_234 (Homo sapiens, UniProt Q96SW2)
T9 construct: endogenous in cells; host or cells: cell lysate
T9 sequence (Q96SW2 whole entry): as above
Protocol: as §1, §2

CRBN_441 = target: T10, CRBN_441 (Homo sapiens, UniProt Q96SW2)
T10 construct: endogenous in cells; host or cells: cell lysate
T10 sequence (Q96SW2 whole entry): as above
Protocol: as §1, §2

BTK_481 = target: T11, BTK_481 (Homo sapiens, UniProt Q06187); conditions: screening concentration; for inhibition of probe labeling, BTK_481, Den.: denatured state; for inhibition of probe labeling, BTK_481, Nat.: native state
T11 construct: In each the cell lysate was pretreated with compound; endogenous in cells
T11 sequence (Q06187 whole entry): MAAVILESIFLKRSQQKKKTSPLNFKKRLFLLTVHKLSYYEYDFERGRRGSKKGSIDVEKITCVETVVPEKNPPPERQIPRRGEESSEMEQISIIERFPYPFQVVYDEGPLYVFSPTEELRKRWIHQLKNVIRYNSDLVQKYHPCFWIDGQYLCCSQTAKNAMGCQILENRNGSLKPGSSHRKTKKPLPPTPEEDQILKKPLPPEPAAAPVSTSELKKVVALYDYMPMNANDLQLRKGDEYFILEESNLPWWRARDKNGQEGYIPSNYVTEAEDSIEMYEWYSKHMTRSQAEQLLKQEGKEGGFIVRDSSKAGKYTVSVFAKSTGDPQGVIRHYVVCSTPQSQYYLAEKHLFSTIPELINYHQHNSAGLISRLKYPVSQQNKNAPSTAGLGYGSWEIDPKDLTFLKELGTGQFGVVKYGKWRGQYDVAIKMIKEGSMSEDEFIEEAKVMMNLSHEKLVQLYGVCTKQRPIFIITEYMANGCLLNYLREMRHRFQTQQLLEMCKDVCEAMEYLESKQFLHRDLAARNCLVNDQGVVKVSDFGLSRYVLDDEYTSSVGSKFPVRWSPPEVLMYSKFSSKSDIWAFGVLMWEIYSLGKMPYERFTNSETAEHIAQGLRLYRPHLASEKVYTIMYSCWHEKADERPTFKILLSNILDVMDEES

CRBN-318 = CRBN-318 (Homo sapiens, UniProt Q96SW2); parameters: endogenous in cells; host or cells: cell lysate; conditions: for inhibition of probe labeling, CRBN_318, Nat.: native state, cell lysate pretreated
Chain of CRBN-318 (Q96SW2 whole entry): as the sequence (Q96SW2 whole entry) above
Protocol: as §1, §2

CRBN-287 = CRBN-287 (Homo sapiens, UniProt Q96SW2); parameters: endogenous in cells; host or cells: cell lysate; conditions: for inhibition of probe labeling, CRBN_287, Nat.: native state, cell lysate pretreated
Chain of CRBN-287 (Q96SW2 whole entry): as above
Protocol: as §1, §2

[1] = denatured state, screening concentration
[2] = native state, screening concentration
[3] = denatured state, probe added after denaturation, screening concentration

| Compound | inhibition of probe labeling, TEC_449, Den. (TEC_449) | inhibition of probe labeling, TEC_449, Nat. (TEC_449) | inhibition of probe labeling, BTK_481, Den. (BTK_481) | inhibition of probe labeling, BTK_481, Nat. (BTK_481) | inhibition of probe labeling, CRBN_322, Den. (CRBN_322; [1]) | inhibition of probe labeling, CRBN_322, Nat. (CRBN_322; [2]) | inhibition of probe labeling, CRBN_343, Den. (CRBN_343; [1]) | inhibition of probe labeling, CRBN_219, Den. (CRBN_219; [1]) | inhibition of probe labeling, CRBN_219, Nat. (CRBN_219; [2]) | inhibition of probe labeling, CRBN_310, Den. (CRBN_310; [1]) | inhibition of probe labeling, CRBN_310, Nat. (CRBN_310; [2]) | inhibition of probe labeling, CRBN_205, Den. (CRBN_205; [1]) | inhibition of probe labeling, CRBN_205, Nat. (CRBN_205; [2]) | inhibition of probe labeling, CRBN_188, Den. (CRBN_188; [1]) | inhibition of probe labeling, CRBN_188, Nat. (CRBN_188; [2]) | inhibition of probe labeling, CRBN_326, Den. (CRBN_326; [1]) | inhibition of probe labeling, CRBN_234, Den. (CRBN_234; [1]) | inhibition of probe labeling, CRBN_234, Nat. (CRBN_234; [2]) | inhibition of probe labeling, CRBN_441, Den. (CRBN_441; [1]) | inhibition of probe labeling, CRBN_318, Den. (CRBN-318; [3]) | further results |
| --- | --- | --- | --- | --- | --- | --- | --- | --- | --- | --- | --- | --- | --- | --- | --- | --- | --- | --- | --- | --- | --- |
| C=CC(=O)N1CC(Cc2ccc(C)cc2)C1 | 98% | 99% | 99% | 99% |  |  |  |  |  |  |  |  |  |  |  |  |  |  |  |  | inhibition of probe labeling, CRBN_322, Den. (CRBN_322): 15%; inhibition of probe labeling, CRBN_322, Nat. (CRBN_322): 36%; inhibition of probe labeling, CRBN_343, Den. (CRBN_343): −28%; inhibition of probe labeling, CRBN_219, Den. (CRBN_219): 24%; inhibition of probe labeling, CRBN_219, Nat. (CRBN_219): −6%; inhibition of probe labeling, CRBN_310, Den. (CRBN_310): −1%; inhibition of probe labeling, CRBN_310, Nat. (CRBN_310): 9%; inhibition of probe labeling, CRBN_205, Den. (CRBN_205): −11%; inhibition of probe labeling, CRBN_205, Nat. (CRBN_205): −23%; inhibition of probe labeling, CRBN_188, Den. (CRBN_188): −21%; inhibition of probe labeling, CRBN_188, Nat. (CRBN_188): −13%; inhibition of probe labeling, CRBN_326, Den. (CRBN_326): −16%; inhibition of probe labeling, CRBN_234, Den. (CRBN_234): −7%; inhibition of probe labeling, CRBN_234, Nat. (CRBN_234): −4%; inhibition of probe labeling, CRBN_441, Den. (CRBN_441): −24%; inhibition of probe labeling, CRBN_318, Den. (CRBN-318): 11%; inhibition of probe labeling, CRBN_287, Den. (CRBN-287): 67% |
| C=CC(=O)N1CCC(Oc2cc(C#N)cc(-c3ccccc3OC)c2)CC1 [drawing 205] | 33% | 28% | 21% | 52% | 19% | 25% | −5% | −2% | −36% | 43% | 54% | 4% | −4% | −28% | −18% | −6% | 26% | 11% | −6% | 38% | inhibition of probe labeling, CRBN_318, Nat. (CRBN-318; screening concentration): 92%; inhibition of probe labeling, CRBN_287, Den. (CRBN-287; [3]): 91%; inhibition of probe labeling, CRBN_287, Nat. (CRBN-287; screening concentration): 98% |
| C=CC(=O)N1CCC(Oc2cccc(-c3ccccc3OC)c2)CC1 [drawing 206] | −4% | 4% | −28% | 2% | 27% | 2% | −12% | 12% | −25% | 35% | 46% | 0% | −20% | −44% | −16% | −15% | 21% | 27% | −22% | 28% | inhibition of probe labeling, CRBN_318, Nat. (CRBN-318; screening concentration): 82%; inhibition of probe labeling, CRBN_287, Den. (CRBN-287; [3]): 76%; inhibition of probe labeling, CRBN_287, Nat. (CRBN-287; screening concentration): 91% |
